Experiments:
[1] = O'Hare et al. 2005 Cancer Cell; cited from earlier work
[2] = system: drusen-associated protein transcripts; assay: Reduced drusen expression: qPCR of drusen-associated protein transcripts in stressed RPE; format: cell-based, human; details: FIG. 4
Experimental: RNA is isolated from the RPE cells at the end of the 24 hour rest period, according to the protocol in the Qiagen RNeasy Micro/Mini Kits. Once isolated, the RNA is converted into cDNA using a high-capacity RNA to cDNA conversion kit (Applied Biosystems). The resulting cDNA is then used in a qPCR assay, to quantitate expression of various drusen-associated genes, including genes encoding: αA-crystallin, αB-crystallin, βB1-crystallin, βB2-crystallin, βs-crystallin, αA4-crystallin, APP, APOE, APOJ, BACE-1, PS1, VEGF, VEGF R1, VEGF R2, PEDF, CC9, serum amyloid P, TIMP3, vitronectin, and H2AE. The expression level of one or more housekeeping genes, such as ribosomal S18 and GAPDH, is also quantitated. Forward and reverse PCR primers having the nucleotide sequences shown in Table 2, below, may be used with a SYBR green reporter from Applied Biosystems.

[3] = system: RPESC-derived RPE cells; assay: Restored viability: LDH cytotoxicity assay in stressed RPESC-derived RPE
[4] = system: RPESC-derived RPE cells; assay: Restored resistance: transepithelial resistance of RPESC-derived RPE after oxidative stress; format: cell-based, human; details: oxidative stress by TBHP; FIG. 3
Excerpt: The ability of a test substance to restore transepithelial resistance may also be determined in the RPE cell-based assay. RPE cells are a tight junctioned epithelia and compromised epithelial integrity is a hallmark of RPE-associated diseases, such as, e.g., dry AMD.
Restored resistance. Healthy RPE form tight functioned epithelia layers with high electrical resistance. Compromising the integrity of these layers decreases the resistance and is indicative of a diseased state, such as dry or other forms of AMD.
Preferably, each well of primary human RPE cells has a resistance greater than 200 Ω·cm^2 before beginning the experiment. Resistance of RPE treated with a test compound is measured again, after oxidative stress, and compared to the resistance in untreated RPE subjected to the same oxidative stress procedure.

Molecule: Cc1cn(-c2cc(NC(=O)c3ccc(C)c(Nc4nccc(-c5cccnc5)n4)c3)cc(C(F)(F)F)c2)cn1 [AMN107]
- potency relative to imatinib mesylate [1]: 20 fold

Molecule: COc1cc(Nc2c(C#N)cnc3cc(OCCCN4CCN(C)CC4)c(OC)cc23)c(Cl)cc1Cl [Bosutinib]
- effect on TBHP-induced up-regulation of drusen-associated protein transcripts [2]: attenuates TBHP-induced up-regulation of drusen-associated protein transcripts

Molecule: Cc1ccc(NC(=O)c2ccc(CN3CCN(C)CC3)cc2)cc1Nc1nccc(-c2cccnc2)n1 [Gleevec, 4-[(4-methylpiperazin-1-yl)methyl]-N-(4-methyl-3-{[4-(pyridin-3-yl)pyrimidin-2-yl]amino}phenyl)benzamide]
- effect on TBHP-induced up-regulation of drusen-associated protein transcripts [2]: attenuates TBHP-induced up-regulation of drusen-associated protein transcripts
- cells viability restored compared to untreated controls ([3]; 1 µM): 100%
- cell death in treated cells ([3]; 1 μM, 100% cell death in untreated controls): 0%
- effect on decrease in transepithelial resistance after oxidative stress [4]: attenuate the decrease in transepithelial resistance

Molecule: Ponatinib
- reduction in cell death compared to the cell lysis control ([3]; 500 nM): about 80%
- effect on cytotoxicity ([3]; 1 μM, FIG. 2): no effect on cytotoxicity

From US20150051212A1, “Compositions And Methods For Inhibiting Drusen” (Regenerative Research Foundation, priority 2012, published 2015)
